Holding throughout (assay): biochemical
Holding throughout (design): KINOMEscan competition binding panel (Eurofins DiscoverX), single concentration, % inhibition

One experiment deals with PLK4 (Homo sapiens, UniProt O00444). Particulars: read-out: 7 at 1 µM % inhibition. A digest of the protocol:
(§1)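 A single 1 µM concentration of each compound is screened across upwards of 400 human kinases using the KINOMEscan format.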

The target in another experiment is ROS1 (Homo sapiens, UniProt P08922). To be noted: read-out: 7 at 1 µM % inhibition. A digest of the protocol: as §1
A further experiment has as its target TAOK3 (Homo sapiens, UniProt Q9H2K8). Particulars: read-out: 7 at 1 µM % inhibition. Summed up: as §1
Another experiment deals with T1, DRAK2 (Homo sapiens, UniProt O94768).
T1 construct: gene STK17B
Particulars: read-out: 7 at 1 µM % inhibition. A digest of the protocol: as §1

For the next experiment, the target named is CSNK1G2 (Homo sapiens, UniProt P78368). To be noted: read-out: 7 at 1 µM % inhibition. A digest of the protocol:
as §1

The next experiment concerns the target T2, TRKC (Homo sapiens, UniProt Q16288).
T2 construct: gene NTRK3
Particulars: read-out: 7 at 1 µM % inhibition. A digest of the protocol:
as §1

For another experiment, the target named is PIK3CA(H1047L) (Homo sapiens, UniProt P42336, H1047L). To be noted: read-out: 7 at 1 µM % inhibition. A digest of the protocol:
as §1

Another experiment deals with STK16 (Homo sapiens, UniProt O75716). To be noted: read-out: 7 at 1 µM % inhibition. Summed up: as §1
Sequence of STK16 (O75716 whole entry): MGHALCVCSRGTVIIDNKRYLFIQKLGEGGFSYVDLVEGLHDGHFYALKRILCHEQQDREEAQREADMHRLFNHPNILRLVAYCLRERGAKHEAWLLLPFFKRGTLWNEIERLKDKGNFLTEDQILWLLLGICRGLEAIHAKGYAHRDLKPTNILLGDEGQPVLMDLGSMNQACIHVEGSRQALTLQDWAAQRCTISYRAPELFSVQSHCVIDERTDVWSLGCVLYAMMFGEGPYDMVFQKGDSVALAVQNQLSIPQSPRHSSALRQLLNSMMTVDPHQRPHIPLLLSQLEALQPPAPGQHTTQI
The target of a further experiment is T3, PKAC-beta (Homo sapiens, UniProt P22694).
T3 construct: gene PRKACB
To be noted: read-out: 7 at 1 µM % inhibition. A digest of the protocol: as §1

In another experiment the target is T4, PFPK5(P.falciparum) (Plasmodium falciparum, UniProt P61075).
T4 construct: gene CRK2
T4 sequence (P61075 whole entry): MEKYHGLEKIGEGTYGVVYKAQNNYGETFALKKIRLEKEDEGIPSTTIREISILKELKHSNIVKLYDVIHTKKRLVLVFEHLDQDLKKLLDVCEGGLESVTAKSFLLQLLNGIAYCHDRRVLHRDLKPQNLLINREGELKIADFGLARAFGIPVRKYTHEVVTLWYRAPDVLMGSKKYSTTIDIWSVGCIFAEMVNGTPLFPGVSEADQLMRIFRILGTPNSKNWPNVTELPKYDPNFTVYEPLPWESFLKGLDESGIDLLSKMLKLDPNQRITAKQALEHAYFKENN
To be noted: read-out: 7 at 1 µM % inhibition (pathogen kinases). Summed up:
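KINOMEscan binding panel of >400 kinases, run by Eurofins DiscoverX, with compounds tested at a single concentration of 1 µM.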

In the next experiment the target is PIK3CD (Homo sapiens, UniProt O00329). To be noted: read-out: 7 at 1 µM % inhibition. Summed up: as §1
Sequence of PIK3CD (O00329 whole entry): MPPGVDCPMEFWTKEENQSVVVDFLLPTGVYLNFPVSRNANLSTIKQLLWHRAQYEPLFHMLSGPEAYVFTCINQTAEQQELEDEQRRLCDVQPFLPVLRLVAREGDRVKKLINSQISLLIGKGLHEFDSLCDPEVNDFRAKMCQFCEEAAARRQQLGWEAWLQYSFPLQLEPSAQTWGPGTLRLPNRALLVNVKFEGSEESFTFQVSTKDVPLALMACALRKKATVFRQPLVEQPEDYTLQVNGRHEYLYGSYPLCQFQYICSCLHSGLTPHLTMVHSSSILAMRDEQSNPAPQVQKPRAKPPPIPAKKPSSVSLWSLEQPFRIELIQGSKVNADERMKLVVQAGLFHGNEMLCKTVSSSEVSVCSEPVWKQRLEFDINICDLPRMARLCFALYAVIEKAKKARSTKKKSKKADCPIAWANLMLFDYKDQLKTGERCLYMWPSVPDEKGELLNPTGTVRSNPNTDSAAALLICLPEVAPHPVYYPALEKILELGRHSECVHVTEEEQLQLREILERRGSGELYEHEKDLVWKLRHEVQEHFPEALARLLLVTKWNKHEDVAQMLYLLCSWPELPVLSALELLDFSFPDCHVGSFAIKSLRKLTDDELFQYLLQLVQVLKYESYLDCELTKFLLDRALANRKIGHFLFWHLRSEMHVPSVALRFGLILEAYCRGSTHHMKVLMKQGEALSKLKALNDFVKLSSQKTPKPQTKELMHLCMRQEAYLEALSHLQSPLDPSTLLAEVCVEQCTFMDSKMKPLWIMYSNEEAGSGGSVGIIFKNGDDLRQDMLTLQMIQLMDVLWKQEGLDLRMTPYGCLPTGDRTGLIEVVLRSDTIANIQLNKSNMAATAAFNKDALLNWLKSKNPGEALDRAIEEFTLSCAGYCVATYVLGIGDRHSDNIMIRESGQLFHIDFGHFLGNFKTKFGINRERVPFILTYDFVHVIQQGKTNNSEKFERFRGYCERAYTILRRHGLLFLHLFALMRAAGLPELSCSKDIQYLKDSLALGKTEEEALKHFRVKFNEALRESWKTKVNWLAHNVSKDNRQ
The target in another experiment is ULK3 (Homo sapiens, UniProt Q6PHR2). Particulars: read-out: 7 at 1 µM % inhibition. A digest of the protocol:
as §1

Experiment [1] addresses T5, RSK2(Kin.Dom.1-N-terminal) (Homo sapiens, UniProt P51812).
T5 construct: gene RPS6KA3; Kin.Dom.1-N-terminal
To be noted: read-out: 7 at 1 µM % inhibition. A digest of the protocol: as §1

Another experiment concerns the target PAK4 (Homo sapiens, UniProt O96013). Particulars: read-out: 7 at 1 µM % inhibition. Summed up: as §1
The target in the next experiment is T6, LKB1 (Homo sapiens, UniProt Q15831).
T6 construct: gene STK11
To be noted: read-out: 7 at 1 µM % inhibition. Summed up:
as §1

For another experiment, the target named is PLK3 (Homo sapiens, UniProt Q9H4B4). Particulars: read-out: 7 at 1 µM % inhibition. Summed up:
as §1

The target of another experiment is WNK4 (Homo sapiens, UniProt Q96J92). Particulars: read-out: 7 at 1 µM % inhibition. Summed up:
as §1

The target of a further experiment is BMPR1A (Homo sapiens, UniProt P36894). Particulars: read-out: 7 at 1 µM % inhibition. Summed up: as §1
Sequence of BMPR1A (P36894 whole entry): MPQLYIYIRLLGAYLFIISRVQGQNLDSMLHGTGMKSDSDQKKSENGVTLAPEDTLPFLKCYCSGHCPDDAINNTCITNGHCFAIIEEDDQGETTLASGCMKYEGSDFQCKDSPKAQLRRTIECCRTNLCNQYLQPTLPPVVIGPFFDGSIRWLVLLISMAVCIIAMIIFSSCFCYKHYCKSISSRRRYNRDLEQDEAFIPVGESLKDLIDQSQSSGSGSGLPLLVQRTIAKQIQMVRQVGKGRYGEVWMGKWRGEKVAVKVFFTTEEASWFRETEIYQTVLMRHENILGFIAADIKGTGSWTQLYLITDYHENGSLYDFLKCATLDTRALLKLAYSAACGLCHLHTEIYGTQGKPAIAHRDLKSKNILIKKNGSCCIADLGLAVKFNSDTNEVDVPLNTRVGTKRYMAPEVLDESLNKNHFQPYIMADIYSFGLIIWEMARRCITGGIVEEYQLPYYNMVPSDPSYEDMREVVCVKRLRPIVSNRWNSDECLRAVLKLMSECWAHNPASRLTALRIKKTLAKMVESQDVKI
Another experiment deals with DAPK3 (Homo sapiens, UniProt O43293). Particulars: read-out: 7 at 1 µM % inhibition. Summed up: as §1
The next experiment addresses KIT(V559D,T670I) (Homo sapiens, UniProt P10721, T670I/V559D). Particulars: read-out: 7 at 1 µM % inhibition. A digest of the protocol: as §1
The target in a further experiment is SYK (Homo sapiens, UniProt P43405). Particulars: read-out: 7 at 1 µM % inhibition. Summed up:
as §1

For the next experiment, the target named is T7, PKAC-alpha (Homo sapiens, UniProt P17612).
T7 construct: gene PRKACA
To be noted: read-out: 7 at 1 µM % inhibition. A digest of the protocol:
as §1

Experiment [2] has as its target T8, JAK3(JH1domain-catalytic) (Homo sapiens, UniProt P52333).
T8 construct: JH1domain-catalytic
To be noted: read-out: 7 at 1 µM % inhibition. Summed up: as §1

For the next experiment, the target named is T9, PRKR (Homo sapiens, UniProt P19525).
T9 construct: gene EIF2AK2
Particulars: read-out: 7 at 1 µM % inhibition. Summed up: as §1

Sequence of ULK3 (Q6PHR2 whole entry): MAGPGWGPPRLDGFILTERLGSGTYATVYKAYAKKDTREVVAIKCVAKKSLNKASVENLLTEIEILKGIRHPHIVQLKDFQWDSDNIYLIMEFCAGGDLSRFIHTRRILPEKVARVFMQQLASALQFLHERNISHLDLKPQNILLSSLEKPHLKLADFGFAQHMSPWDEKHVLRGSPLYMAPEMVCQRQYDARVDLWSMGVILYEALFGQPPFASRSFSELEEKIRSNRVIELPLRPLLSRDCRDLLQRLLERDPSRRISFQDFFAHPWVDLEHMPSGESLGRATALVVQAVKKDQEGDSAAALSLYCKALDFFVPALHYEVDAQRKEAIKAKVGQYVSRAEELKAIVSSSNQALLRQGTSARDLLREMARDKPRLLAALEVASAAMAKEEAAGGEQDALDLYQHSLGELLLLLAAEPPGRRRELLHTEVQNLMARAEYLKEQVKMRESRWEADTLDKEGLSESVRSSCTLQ
Sequence of PLK4 (O00444 whole entry): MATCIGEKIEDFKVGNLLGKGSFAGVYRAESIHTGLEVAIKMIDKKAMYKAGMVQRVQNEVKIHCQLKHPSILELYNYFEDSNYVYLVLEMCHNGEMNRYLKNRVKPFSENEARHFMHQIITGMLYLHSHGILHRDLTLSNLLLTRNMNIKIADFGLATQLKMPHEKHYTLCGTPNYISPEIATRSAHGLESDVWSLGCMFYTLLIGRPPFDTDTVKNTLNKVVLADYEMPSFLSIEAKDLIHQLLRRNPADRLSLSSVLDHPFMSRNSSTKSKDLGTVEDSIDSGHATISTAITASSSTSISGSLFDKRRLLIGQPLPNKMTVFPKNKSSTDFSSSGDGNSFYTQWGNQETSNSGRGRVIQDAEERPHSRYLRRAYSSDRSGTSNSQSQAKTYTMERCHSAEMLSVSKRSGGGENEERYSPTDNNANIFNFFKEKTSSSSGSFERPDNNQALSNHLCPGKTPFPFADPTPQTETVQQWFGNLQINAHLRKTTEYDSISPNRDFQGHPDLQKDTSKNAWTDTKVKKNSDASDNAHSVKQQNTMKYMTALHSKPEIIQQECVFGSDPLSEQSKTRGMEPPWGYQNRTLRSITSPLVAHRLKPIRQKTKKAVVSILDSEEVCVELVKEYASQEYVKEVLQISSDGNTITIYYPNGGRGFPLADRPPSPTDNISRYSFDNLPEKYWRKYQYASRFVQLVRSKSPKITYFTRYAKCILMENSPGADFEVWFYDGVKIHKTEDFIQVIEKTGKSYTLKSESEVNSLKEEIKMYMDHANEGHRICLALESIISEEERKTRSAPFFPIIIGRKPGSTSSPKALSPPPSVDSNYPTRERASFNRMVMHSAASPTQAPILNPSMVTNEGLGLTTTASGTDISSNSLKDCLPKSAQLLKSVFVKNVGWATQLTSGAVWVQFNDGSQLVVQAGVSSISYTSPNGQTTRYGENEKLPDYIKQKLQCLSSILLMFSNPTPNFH
Sequence of KIT(V559D,T670I) (P10721 whole entry V559D/T670I): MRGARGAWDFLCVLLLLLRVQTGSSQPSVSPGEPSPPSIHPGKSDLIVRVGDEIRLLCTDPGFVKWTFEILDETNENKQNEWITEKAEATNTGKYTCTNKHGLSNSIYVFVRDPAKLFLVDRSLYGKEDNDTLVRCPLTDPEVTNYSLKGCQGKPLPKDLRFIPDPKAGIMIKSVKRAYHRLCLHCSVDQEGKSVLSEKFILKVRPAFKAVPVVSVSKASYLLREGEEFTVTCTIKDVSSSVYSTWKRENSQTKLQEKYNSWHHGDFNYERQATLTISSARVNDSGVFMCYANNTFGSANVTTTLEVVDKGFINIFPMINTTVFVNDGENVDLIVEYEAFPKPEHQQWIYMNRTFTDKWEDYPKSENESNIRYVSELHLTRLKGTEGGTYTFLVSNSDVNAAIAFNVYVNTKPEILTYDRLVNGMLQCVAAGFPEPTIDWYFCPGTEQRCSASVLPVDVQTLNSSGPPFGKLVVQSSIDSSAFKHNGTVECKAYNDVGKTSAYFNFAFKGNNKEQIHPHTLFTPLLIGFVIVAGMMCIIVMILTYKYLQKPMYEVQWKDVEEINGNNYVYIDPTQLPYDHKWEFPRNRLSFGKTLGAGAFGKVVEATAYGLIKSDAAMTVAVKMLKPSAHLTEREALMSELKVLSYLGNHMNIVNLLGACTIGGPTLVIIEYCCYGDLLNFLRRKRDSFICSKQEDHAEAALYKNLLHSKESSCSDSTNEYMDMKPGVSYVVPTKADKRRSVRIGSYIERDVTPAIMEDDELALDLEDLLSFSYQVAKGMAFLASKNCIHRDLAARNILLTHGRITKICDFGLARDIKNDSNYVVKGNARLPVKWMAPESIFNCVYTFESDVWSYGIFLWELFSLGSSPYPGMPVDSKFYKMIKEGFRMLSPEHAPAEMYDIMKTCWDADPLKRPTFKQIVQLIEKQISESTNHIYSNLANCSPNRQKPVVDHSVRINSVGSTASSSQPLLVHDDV
Sequence of CSNK1G2 (P78368 whole entry): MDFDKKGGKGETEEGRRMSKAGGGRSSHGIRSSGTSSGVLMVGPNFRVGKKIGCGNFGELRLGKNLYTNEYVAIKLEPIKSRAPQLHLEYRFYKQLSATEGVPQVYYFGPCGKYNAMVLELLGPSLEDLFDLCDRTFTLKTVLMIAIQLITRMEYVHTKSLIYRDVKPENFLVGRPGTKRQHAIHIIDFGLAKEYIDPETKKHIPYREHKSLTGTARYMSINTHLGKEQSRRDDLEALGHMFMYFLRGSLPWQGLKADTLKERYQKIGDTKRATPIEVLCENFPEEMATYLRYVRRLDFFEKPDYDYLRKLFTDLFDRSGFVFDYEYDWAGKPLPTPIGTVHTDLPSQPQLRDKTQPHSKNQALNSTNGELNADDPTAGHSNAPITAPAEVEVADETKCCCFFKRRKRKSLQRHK

Regarding `CNS(=O)(=O)c1ccc(N(C)C)c(Nc2ncnc3cc(OC)c(OC)cc23)c1` [compound 7, 3-((6,7-dimethoxyquinazolin-4-yl)amino)-4-(dimethylamino)-N-methylbenzenesulfonamide], the inhibition at 1 µM on PLK4 worked out at 7%; at ROS1, 0%; on TAOK3, 29%; at DRAK2, 0%; at CSNK1G2 it was 0%; on TRKC, 0%. Further, the inhibition at 1 µM on PIK3CA(H1047L) turned out to be 0%; at STK16, 0%; on PKAC-beta, 0%; at PFPK5(P.falciparum), 6%; on PIK3CD, 61%; on ULK3, 29%. Also, the inhibition at 1 µM worked out at 13% in experiment [1]; 0% at PAK4; 0% on LKB1; 0% on PLK3; 0% at WNK4; 0% on BMPR1A. Further, the inhibition at 1 µM was determined as 9% on DAPK3; 8% on KIT(V559D,T670I); 0% on SYK; 6% on PKAC-alpha; 17% in [2]; 0% at PRKR.

The term inhibition denotes the change of the read-out against control, counted positive when it falls.

(Values after article PMC7180948, “New Insights into 4-Anilinoquinazolines as Inhibitors of Cardiac Troponin I–Interacting Kinase (TNNi3K)” (Molecules, 2020).)
